One assay deals with T1, hA1AR (Homo sapiens, UniProt P30542).
T1 sequence (P30542 1-326): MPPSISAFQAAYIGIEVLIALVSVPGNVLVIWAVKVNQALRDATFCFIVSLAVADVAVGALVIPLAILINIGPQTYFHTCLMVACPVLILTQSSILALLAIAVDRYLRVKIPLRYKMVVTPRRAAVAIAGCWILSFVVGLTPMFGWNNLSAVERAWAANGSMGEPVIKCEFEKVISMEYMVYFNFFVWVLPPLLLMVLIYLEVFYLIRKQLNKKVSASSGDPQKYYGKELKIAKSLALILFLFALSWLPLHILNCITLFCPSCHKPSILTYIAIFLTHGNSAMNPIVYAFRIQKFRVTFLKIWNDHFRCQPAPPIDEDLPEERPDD
The assay can be described thus: Radioligand binding at human A1AR, membranes of CHO cells. The conditions noted are these: for inhibition at 10 µM: read-out: % inhibition at 10 µM A1AR; for % inhibition at 30 µM A1AR: radioligand displacement at 30 µM, bases; for inhibition at 30 µM: read-out: % inhibition at 30 µM A1AR. On the technique in general: Loss of bound radioactivity is the signal in a displacement assay; it reports binding, not function.

The target of another assay is hA2AAR (Homo sapiens, UniProt P29274). The assay can be described thus: Radioligand binding at human A2AAR, membranes of HEK293 cells. The settings on record: for inhibition at 10 µM: read-out: % inhibition at 10 µM A2AAR; for % inhibition at 30 µM A2AAR: radioligand displacement at 30 µM, bases; for inhibition at 30 µM: read-out: % inhibition at 30 µM A2AAR.
The target in the next assay is T2, A2BAR (Homo sapiens, UniProt P29275).
T2 sequence (P29275 1-332): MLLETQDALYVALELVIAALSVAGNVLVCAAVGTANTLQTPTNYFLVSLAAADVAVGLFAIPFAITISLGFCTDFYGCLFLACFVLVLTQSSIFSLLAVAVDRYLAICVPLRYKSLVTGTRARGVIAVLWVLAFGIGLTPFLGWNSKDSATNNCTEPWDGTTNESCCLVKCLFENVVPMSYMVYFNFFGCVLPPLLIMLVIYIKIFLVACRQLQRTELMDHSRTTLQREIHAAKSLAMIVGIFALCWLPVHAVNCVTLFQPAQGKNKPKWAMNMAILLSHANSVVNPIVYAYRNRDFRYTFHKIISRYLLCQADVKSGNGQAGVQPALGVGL
The assay can be described thus: Functional assay for the A2BAR in CHO cells. In kind it is cell-based. The conditions noted are these: for functional activity at A2BAR: inactive refers to 10 µM.

The next assay addresses T3, A3AR (Homo sapiens, UniProt P0DMS8).
T3 sequence (P0DMS8 1-318): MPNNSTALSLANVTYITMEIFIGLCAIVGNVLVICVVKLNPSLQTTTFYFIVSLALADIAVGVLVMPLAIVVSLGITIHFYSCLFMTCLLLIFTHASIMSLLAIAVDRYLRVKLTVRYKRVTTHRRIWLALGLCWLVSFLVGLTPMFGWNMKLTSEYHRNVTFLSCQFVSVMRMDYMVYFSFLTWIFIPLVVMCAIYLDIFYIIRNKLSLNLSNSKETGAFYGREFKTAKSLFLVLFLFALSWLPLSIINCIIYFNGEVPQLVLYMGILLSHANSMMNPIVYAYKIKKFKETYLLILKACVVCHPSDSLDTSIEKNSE

Another assay deals with T4, A1AR (Homo sapiens, UniProt P30542).
T4 sequence (P30542 1-326): T1 sequence (P30542 1-326)
The conditions noted are these: cAMP assay. Background: cAMP levels reflect the balance of adenylyl cyclase and phosphodiesterase activity.

The target in the next assay is T5, hA3AR (Homo sapiens, UniProt P0DMS8).
T5 sequence (P0DMS8 1-318): T3 sequence (P0DMS8 1-318)
The assay is described as follows: Radioligand binding at human A3AR, membranes of CHO cells. The settings on record: for % inhibition at 30 µM A3AR: radioligand displacement at 30 µM, bases; for inhibition at 30 µM: read-out: % inhibition at 30 µM A3AR.

Entries after “also recorded” stand apart in the source; their conditions may differ.

Chain of hA2AAR (P29274 whole entry): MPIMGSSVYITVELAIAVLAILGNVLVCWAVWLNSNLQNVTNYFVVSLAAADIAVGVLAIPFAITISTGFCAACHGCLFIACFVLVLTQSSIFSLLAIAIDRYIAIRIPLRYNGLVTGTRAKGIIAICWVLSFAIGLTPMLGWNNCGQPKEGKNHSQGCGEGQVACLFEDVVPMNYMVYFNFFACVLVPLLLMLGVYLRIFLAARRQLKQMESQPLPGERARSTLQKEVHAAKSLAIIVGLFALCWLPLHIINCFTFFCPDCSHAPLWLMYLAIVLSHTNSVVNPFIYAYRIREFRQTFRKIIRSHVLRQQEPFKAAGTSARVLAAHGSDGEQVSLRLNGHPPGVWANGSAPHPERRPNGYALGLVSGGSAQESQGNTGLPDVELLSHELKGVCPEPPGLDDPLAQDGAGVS

For `Cc1cn([C@@H]2O[C@H](CO)[C@@H](O)[C@H]2O)c(=O)nc1N` [Compound 13, 5-methylcytidine], the inhibition at 10 µM on hA1AR amounted to 10 ± 3%; at hA2AAR, 13 ± 9%.
`Nc1nc(=O)[nH]c2c1ncn2[C@@H]1O[C@H](CO)[C@@H](O)[C@H]1O` [Compound 9, isoguanosine]: on A2BAR, it took 3100 nM to reach a half-maximal effect (EC50) and the “functional activity at A2BAR” value was “full agonists”.
The corresponding values for `Nc1ccnc2c1ncn2[C@@H]1O[C@H](CO)[C@@H](O)[C@H]1O` [Compound 5, 1-deazaadenosine] are 1500 nM and “full agonists”.
In the case of `Nc1ncn([C@@H]2O[C@H](CO)[C@@H](O)[C@H]2O)c(=O)n1` [Compound 12, 5-azacytidine], the inhibition at 10 µM at hA2AAR was 34 ± 2%. The Emax on A3AR (CHO, read-out: maximal efficacy A3AR) is approximately 30%.
As to `Nc1nccc2c1ncn2[C@@H]1O[C@H](CO)[C@@H](O)[C@H]1O` [Compound 6, 3-deazaadenosine], the “functional activity at A2BAR” value on A2BAR is “inactive”. The “functional activity at A1AR” value on A1AR is on record as “no influence on cAMP levels was detected; also recorded: lost the ability to activate the receptor”.
`Nc1ncnc2[nH]cnc12` [Compound 26, adenine]: at hA1AR, the “% inhibition at 30 µM A1AR” value was “No significant displacement” and the inhibition at 30 µM stood at 19 ± 8%. Also, at hA2AAR, the “% inhibition at 30 µM A2AAR” value is on record as “No significant displacement” and the inhibition at 30 µM is 19 ± 8%. In addition, on hA3AR, the “% inhibition at 30 µM A3AR” value was “No significant displacement”.
As for `Cn1c(=O)[nH]c2nc[nH]c2c1=O` [Compound 28, 1-methylxanthine], the inhibition at 30 µM at hA2AAR is 40 ± 8%; at hA3AR, 36 ± 6%.
In the case of `Nc1cccc2c1ncn2[C@@H]1O[C@H](CO)[C@@H](O)[C@H]1O` [Compound 7, 1,3-dideazaadenosine], the inhibition at 10 µM was 15 ± 2% at hA1AR and 5 ± 2% at hA2AAR. Further, on hA2AAR (radioligand displacement at 10 µM, mean ± standard error, three experiments), the “% inhibition at 10 µM A2AAR” value was “completely lost affinity”. Further, the “functional activity at A3AR” value at A3AR (cAMP assay, 10 µM for compound 11) was “strongly selective agonist”.
`Nc1nc[nH]c(=O)c1Cl` [Compound 29, 6-amino-5-chloropyrimidin-4(3H)-one]: on hA1AR, the “% inhibition at 30 µM A1AR” value was “No significant displacement” and the inhibition at 30 µM turned out to be 11 ± 3%. Further, the “% inhibition at 30 µM A2AAR” value on hA2AAR is on record as “No significant displacement”. In addition, on hA3AR, the “% inhibition at 30 µM A3AR” value is reported as “No significant displacement” and the inhibition at 30 µM turned out to be 19 ± 5%.

As a reminder, the inhibition is how much of the control response was suppressed. The term EC50 denotes the concentration that produces a half-maximal response. A higher EC50 goes with a need for much substance.

The values are drawn from article PMC5207038 (ACS chemical biology, 2016).
